Experimental data reported in PMC3006138, “Fexinidazole – A New Oral Nitroimidazole Drug Candidate Entering Clinical Development for the Treatment of Sleeping Sickness” (PLoS Neglected Tropical Diseases, 2010).
Values joined by “and” are separate entries in the source; they are usually repeats but may differ in a detail not shown here. Equal entries are not always repeated. Where two headings read alike, the source gives them in different places. Each block holds one compound with its values, some of them ahead of it.

Legend:
[1] = One-electron reduction potential by pulse radiolysis; assay type: physicochemical
Protocol: One-electron reduction potentials were determined by pulse radiolysis following an established procedure.

[2] = system: bone marrow polychromatic erythrocytes; experiment: In vivo bone marrow micronucleus test; set-up: species or system mouse; details: 4.0 mg/kg, positive control
Protocol: Groups of six young adult male Crl:CD-1 (ICR) mice were treated with fexinidazole at two oral doses of 0, 500, 1000, or 2000 mg/kg given 24 h apart, and bone marrows were harvested 24 h after the second dose. Slides of bone marrow cells were prepared, Giemsa stained, and 2000 polychromatic erythrocytes per animal were scored for micronuclei.

human lymphocytes = experiment: In vitro micronucleus test; assay type: cell-based; details: 6.25 µg/mL, +S9, positive control
Protocol: Duplicate human lymphocyte cultures were prepared from the pooled blood of two donors in two independent experiments. […] The test concentrations for micronucleus analysis were selected by evaluating the effect of fexinidazole on the replication index (RI). In each experiment, micronuclei were analysed at three concentrations. Similar tests were carried out on fexinidazole sulfone. As per the Ames test, this was carried out in the absence of rat liver S9 only.

L-6 rat myoblast cells = experiment: Cytotoxicity assay; assay type: cell-based; details: 72 h, read-out: IC50
Protocol: (§1) 10 µL of Alamar Blue was added for the final 3 h to determine viability. […] The IC50 values were calculated from the sigmoidal inhibition curves. For cytotoxicity, 4×10^4/mL L-6 rat skeletal myoblast cells were used, and incubations and assessments carried out as above.

[3] = system: T. b. gambiense (STIB 930); experiment: In vitro trypanocidal assay (Alamar Blue); assay type: cell-based, Trypanosoma brucei gambiense; details: Trypanosoma brucei, 72 h; read-out: IC50
Protocol: Parasites were cultured with or without the test article at a concentration of 3×10^4/mL in Minimal Essential Medium, according to Baltz et al., with the following modifications: 0.2 mM 2-mercaptoethanol, 1 mM Na-pyruvate, 0.5 mM hypoxanthine and 15% heat inactivated horse serum at 37°C in 5% CO2 in 96-well microtitre plates for 72 h. 10 µL of Alamar Blue was added for the final 3 h to determine viability. The assay was assessed by reading the fluorescence in each well at an excitation wavelength of 536 nm and at an emission wavelength of 588 nm. The IC50 values were calculated from the sigmoidal inhibition curves. For cytotoxicity, 4×10^4/mL L-6 rat skeletal myoblast cells were used, and incubations and assessments carried out as above.

[4] = system: T. b. rhodesiense (STIB 900); experiment: In vitro trypanocidal assay (Alamar Blue); assay type: cell-based, Trypanosoma brucei rhodesiense; details: Trypanosoma brucei, 72 h; read-out: IC50
Protocol: as §1

[5] = Hepatocyte intrinsic clearance and metabolite profile; assay type: in vitro ADME, mouse; details: male, CD-1, mouse, cryopreserved hepatocytes, 1 µM
Protocol: (§2) Fexinidazole was incubated with cryopreserved hepatocytes from male CD-1 mice, male Sprague Dawley rats, male beagle dogs, male cynomolgus monkeys, and from pooled white or African-American human donor samples (purchased commercially), at concentrations of 1 µM and 10 µM. […] The incubated samples were analyzed by LC-MS after extraction into acetonitrile.
(§3) A quality control analysis of fexinidazole was performed via 1H-NMR in DMSO and LC- […]
(§4) provided by the Swiss Tropical Institute (Basel, Switzerland).
(§5) Reagents and solvents were of analytical grade and obtained from Sigma-Aldrich (St. Louis, […]
(§6) Cryopreserved hepatocytes from the male CD1 mouse, lot CSI; male Sprague Dawley rat, lot LPL; male beagle dog, lot BWX; male cynomolgus monkey, lot EHH; and pooled human samples, lot MJI, were purchased from In Vitro Technologies Inc (Baltimore, Maryland, […]
(§7) 5.4. In vitro Incubations
(§8) On the day of the experiment a 10 mM stock solution of fexinidazole in DMSO was prepared and, within 3 hours, aliquots of this freshly prepared solution, after suitable dilution, were added to the incubation matrix, to reach fexinidazole final concentrations of 1 and 10 µM. The final percentage of DMSO was 0.01% in the incubation samples for the […]
(§9) On the day of experiment, the cryopreserved hepatocytes were thawed following the detailed instructions provided by the supplier.
(§10) The number of viable cells was determined using a Trypan Blue exclusion method.
(§11) 5.4.1. Intrinsic Clearance Study […]
(§12) µM with mouse, rat, dog, monkey and human hepatocytes (300000 cells/mL for the mouse and 1 million cells/mL for the other species) in a final incubation volume of 0.75 mL […]
(§13) Incubations were performed in duplicate in a 48-well plate under shaking. Sampling was performed using an automatic liquid handling system (Multiprobe II EX, Packard). At 0, 1, 5, 10, 15, 20, 30, 60 and 120 minutes, 50 µL aliquots of the incubates were taken, then 80 µL of ice-cold acetonitrile and 20 µL of 1 µM warfarin in acetonitrile (internal standard) were added, and samples centrifuged at 2000 rpm for 20 min. The supernatant was analyzed by LC-MS/MS. […]
(§14) the medium alone at t = 0 and 120 minutes.
(§15) For the determination of phase I and phase II activity of hepatocytes, 7-ethoxycoumarin (7-EC) 1 µM, and 7-hydroxycoumarin (7-HC) 30 µM were used as positive controls and incubated under the same conditions as fexinidazole. Aliquots of incubates were taken at 0, 10, 20, 30, 60 and 120 minutes and processed as fexinidazole samples.
(§16) 5.4.2. Metabolite Profile Study
(§17) For metabolite profiling, fexinidazole was incubated at a concentration of 10 µM with mouse, rat, dog, monkey and human hepatocytes (300000 cells/mL for the mouse and 1 million cells/mL for the other species) in a final incubation volume of 2 mL Leibovitz L-15 […]
(§18) Aliquots of the incubation samples were taken at t = 0, 30 and 120 minutes; the metabolism was stopped by the addition of an equal volume of cold acetonitrile and the samples centrifuged at 1500 rpm for 20 min. The supernatant was stored at -20°C until analysis. Control incubations were performed with the compound in the medium alone […]
(§19) 5.5. Analysis of Samples for Intrinsic Clearance Determination
(§20) The analysis of the samples for intrinsic clearance determination was performed by an LC-MS/MS method, using the following conditions:
(§21) HPLC Equipment and Conditions
(§22) HPLC system Agilent 1100 binary pump (Agilent, Palo Alto, USA)
(§23) Autosampler CTC Pal (Alfatech, San Jose, USA)
(§24) Analytical column Guard Column SB-C8 4.6 x 12.5 mm, 5 µm (Zorbax)
(§25) Column temperature ambient
(§26) Mobile phase A 10 mM ammonium formate pH 4.0: acetonitrile (95:5, v:v)
(§27) Mobile phase B 10 mM ammonium formate pH 4.0: acetonitrile (5:95, v:v) […]
(§28) Gradient conditions Step Total time (min) flow (µL/min) %A % B […]
(§29) MS Equipment and Conditions
(§30) Mass spectrometer API 4000 Triple Quadrupole (MDS-Sciex, Toronto, […]
(§31) Source Turbo Ion Spray (TIS)
(§32) Ion mode Positive for fexinidazole and 7-EC.
(§33) Negative for 7-HC, 7-HC sulphate and 7-HC glucuronide.

[6] = as above; assay type: in vitro ADME, dog; details: male, beagle, dog, cryopreserved hepatocytes, 1 µM
Protocol: as §2, §3, §4, §5, §6, §7, §8, §9, §10, §11, §12, §13, §14, §15, §16, §17, §18, §19, §20, §21, §22, §23, §24, §25, §26, §27, §28, §29, §30, §31, §32, §33

[7] = as above; assay type: in vitro ADME, human; details: human, cryopreserved pooled hepatocytes, 1 µM
Protocol: as §2, §3, §4, §5, §6, §7, §8, §9, §10, §11, §12, §13, §14, §15, §16, §17, §18, §19, §20, §21, §22, §23, §24, §25, §26, §27, §28, §29, §30, §31, §32, §33

[8] = as above; assay type: in vitro ADME, cynomolgus monkey; details: male, cynomolgus, cynomolgus monkey, cryopreserved hepatocytes, 1 µM
Protocol: as §2, §3, §4, §5, §6, §7, §8, §9, §10, §11, §12, §13, §14, §15, §16, §17, §18, §19, §20, §21, §22, §23, §24, §25, §26, §27, §28, §29, §30, §31, §32, §33

[9] = as above; assay type: in vitro ADME, human; details: human
Protocol: as §2
Fexinidazole sulfoxide, lot 1106-I-0170, 99.3% purity, and fexinidazole sulfone, lot 1106-I-0171, 99.9% purity, were provided by the Sponsor.
Cryopreserved hepatocytes of five single donors, lots EHI, REL, KSE […]
ZIJ and MRS, were purchased from In Vitro Technologies Inc (Baltimore, Maryland, USA).
The certificates of analysis are reported in Appendix 1.
as §5
7.5. In Vitro Incubations
as §8
The cryopreserved hepatocytes were thawed according to the supplier’s procedure and the number of viable cells was determined using the Trypan Blue exclusion method. Viabilities were 92% for lot EHI, 89% for lot REL, 82% for lot KSE, 86% for lot ZIJ and 86% for lot MRS in the intrinsic clearance study. In the metabolite profile study viabilities were 91% for lot EHI, 90% for lot REL, 85% for lot KSE, 84% for lot ZIJ and 87% for lot MRS.
Afterwards, the same amount of viable cells for each donor were pooled and used for the incubations of fexinidazole.
7.5.1. Intrinsic Clearance Study […]
as §13, with “µM with pooled human hepatocytes (1 million cells/mL) in a final incubation volume of 1 mL Leibovitz L-15 medium, at 37°C. Incubations” for “Incubations”
The chemical stability of fexinidazole was checked by incubating the compound at 37°C in the medium alone at t = 0 and 120 minutes.
For the determination of phase I and phase II activities of hepatocytes, 7-ethoxycoumarin (7-ETC) 1 µM, and 7-hydroxycoumarin (7-HC) 30 µM were used as positive controls and incubated under the same conditions as fexinidazole. Aliquots of incubates were taken at 0, 1, 5, 10, 15, 20, 30, 60 and 120 minutes and processed as fexinidazole samples.
7.5.2. Metabolite Profile Study
For metabolite profiling, fexinidazole was incubated at a concentration of 10 µM with pooled human hepatocytes (1 million cells/mL) in a final incubation volume of 2 mL Leibovitz L-15 medium, at 37°C. Aliquots of the incubation samples were taken at t = 0, 30 and 120 minutes; the metabolism was stopped by the addition of an equal volume of cold acetonitrile and the samples centrifuged at 1100 rpm for 20 min. The supernatant was stored at -20°C until analysis. Control incubations were performed with the compound in the medium alone for 120 minutes.
7.6. Analysis of the Samples of Intrinsic Clearance Study
as §20, §21
HPLC system 1100 binary pump (Agilent, Palo Alto, USA)
Autosampler 2777 (Waters)
as §24, §25, §26, §27, §28

[10] = as above; assay type: in vitro ADME, rat; details: male, Sprague Dawley, rat, cryopreserved hepatocytes, 1 µM
Protocol: as §2, §3, §4, §5, §6, §7, §8, §9, §10, §11, §12, §13, §14, §15, §16, §17, §18, §19, §20, §21, §22, §23, §24, §25, §26, §27, §28, §29, §30, §31, §32, §33

- single electron redox potential [1]: −516 mV
SMILES: Cc1ncc([N+](=O)[O-])n1CCO [metronidazole, reference compound]

SMILES: O=P1(N(CCCl)CCCl)NCCCO1 (centres unmarked) [Cyclophosphamide, reference compound]
- Micronucleated PCE/1000 [2]: 19.3
- PCE/NCE [2]: 0.89
- Micronucleated binucleate cells (human lymphocytes; 24-h PHA): 3.60%
- Micronucleated binucleate cells (human lymphocytes; 48-h PHA): 12.85%

SMILES: N=C(N)c1ccc(OCCCCCOc2ccc(C(=N)N)cc2)cc1 [Pentamidine]
- IC50 (L-6 rat myoblast cells): 3 µg/mL and 9 µM
- IC50 [3]: 0.002 µg/mL and 10 nM
- IC50 [4]: 0.003 µg/mL and 9 nM

SMILES: NCCCC(N)(C(=O)O)C(F)F (centres unmarked) [Eflornithine]
- IC50 (L-6 rat myoblast cells): 12 µg/mL and 51 µM
- IC50 [3]: 0.4 µg/mL and 1.67 µM
- IC50 [4]: 0.9 µg/mL and 3.8 µM

- half-life at 1 µM [5]: 2.6 min
- CLint scaled at 1 µM ([5]; read-out: CLint in vitro): 2380 mL/min/kg
- hepatocyte CLint at 1 µM ([5]; read-out: CLint in vitro): 901 µL/min/1e6 cells
- half-life at 1 µM [6]: 1.7 min
- CLint scaled at 1 µM ([6]; read-out: CLint in vitro): 3110 mL/min/kg
- hepatocyte CLint at 1 µM ([6]; read-out: CLint in vitro): 405 µL/min/1e6 cells
- half-life at 1 µM [7]: 4.8 min
- CLint scaled at 1 µM ([7]; read-out: CLint in vitro): 345 mL/min/kg
- hepatocyte CLint at 1 µM ([7]; read-out: CLint in vitro): 144 µL/min/1e6 cells
- half-life at 1 µM [8]: 2.5 min
- CLint scaled at 1 µM ([8]; read-out: CLint in vitro): 1480 mL/min/kg
- hepatocyte CLint at 1 µM ([8]; read-out: CLint in vitro): 272 µL/min/1e6 cells
- half-life at 1 µM [9]: 6.4 min
- CLint scaled at 1 µM ([9]; read-out: CLint in vitro): 258 mL/min/kg
- hepatocyte CLint at 1 µM ([9]; read-out: CLint in vitro): 108 µL/min/1e6 cells
- half-life at 1 µM [10]: 13.2 min
- CLint scaled at 1 µM ([10]; read-out: CLint in vitro): 251 mL/min/kg
- hepatocyte CLint at 1 µM ([10]; read-out: CLint in vitro): 52.4 µL/min/1e6 cells
SMILES: CCOc1ccc2ccc(=O)oc2c1 [7-ethoxycoumarin, reference compound]
